Source: patent US10376585B2, “Injectable antibiotic formulations and their methods of use” (BAYER NEW ZEALAND LTD, priority 2012, dated 2019)

Columns and labels:
[1] = type: physicochemical
Text: Thus the long term stability of PNT with triacetin (or other oily vehicles) is highly unexpected.
After one month in accelerated stability the components of the composition appeared to degrade rapidly with a resulting colour change from an off-white to a dark yellow with dark brown sludge forming. The degradation components appeared to include a gas, resulting in the container swelling from the resultant pressure. Accordingly, the formulations described in CN 1517090 are not known to be storage stable.

[2] = at 20° C.; cited from earlier work
[3] = intramuscular administration; Friton 2003; cited from earlier work
[4] = blood pH (7.2); cited from earlier work

## CC1(C)S[C@@H]2[C@H](NC(=O)Cc3ccccc3)C(=O)N2[C@H]1C(=O)O [benzylpenicillin]
[1]
  chemical stability on storage: chemically unstable on storage

## CC1(C)S[C@@H]2[C@H](NC(=O)Cc3ccccc3)C(=O)N2[C@H]1C(=O)O.CCN(CC)CCOC(=O)c1ccc(N)cc1 [procaine penicillin]
[1]
  chemical stability of composition: chemically unstable
  chemical stability on storage: chemically unstable on storage

## CC(=O)OCC(COC(C)=O)OC(C)=O [Triacetin]
[2]
  viscosity: approximately 23 mPas

## CCN(CC)CCOC(=O)[C@@H]1N2C(=O)[C@@H](NC(=O)Cc3ccccc3)[C@H]2SC1(C)C.I [penethamate hydroiodide]
[3]
  time to peak serum levels (measured as dissociated penicillin G) after injection: 3.76 h
[4]
  active drug present in its hydrolysed form (benzylpenicillin) at equilibrium: 91.8%
